{
  "source": "patent US6737397B1",
  "about": "“Control of cancer growth through the interaction of [MET5]-enkephalin and the zeta receptor” (The Penn State Research Foundation, priority 1996, dated 2004)",
  "key": {"neuroblastoma": {"test_system": "neuroblastoma", "details": "cited from earlier work"}, "COLO 205 cells": {"test_system": "COLO 205 cells", "assay": "Growth assay (cell counts) of COLO 205 human colon cancer cells", "assay_type": "cell-based", "details": "10^−6 M NTX, 48 hr", "experimental": "(§1) HT-29, WiDr, and COLO 205 cell lines were obtained from the American Type Culture Collection (Rockville, Md.). HT-29 cells were grown in McCoy's 5A media (modified), WiDr cells in Minimum Essential Media, and COLO 205 cells in RPMI 1640 media; all media contained 10% fetal calf serum, 2 mM […], 1.2% sodium bicarbonate and antibiotics (11 Units/ml penicillin, 10 μg/ml streptomycin, 10 μg/ml neomycin) in a humidified atmosphere of 7% CO2/93% air at 37° C. In some examples, cultures of HT-29 cells were maintained in McCoy's 5A media without fetal calf serum.\n(§2) Cells were seeded at equivalent amounts into 75 cm^2 flasks or into 9.6 cm^2 wells (6-well plates, Falcon) and were counted 24 hr later to determine plating efficiency. Drugs or sterile water were added beginning 24 hr after seeding (=0 hours) and both media and drugs were changed daily. All drugs were prepared in sterile water and dilutions represent final concentrations of the compounds. At appropriate times, cells were harvested with 0.05% trypsin/0.53 mM EDTA, centrifuged, and counted with a hemacytometer at 200×. Cell viability was determined by trypan blue staining. At least 2 aliquots/flask or well were counted and 2 flasks or wells/time point/treatment group were sampled.\n(§3) To examine the ubiquity of opioid activity with respect to colon cancer, two other colon cancer cell lines were investigated: COLO 205 and WiDr."}, "WiDr cells": {"test_system": "WiDr cells", "assay": "Growth assay (cell counts) of WiDr human colon cancer cells", "assay_type": "cell-based", "details": "10^−6 M NTX, 48 hr", "experimental": "as §1, §2, §3"}, "ζ-opioid receptor [1]": {"target": "T1, ζ-opioid receptor (Homo sapiens, UniProt Q9NZT2)", "T1 sequence (Q9NZT2 1-677)": "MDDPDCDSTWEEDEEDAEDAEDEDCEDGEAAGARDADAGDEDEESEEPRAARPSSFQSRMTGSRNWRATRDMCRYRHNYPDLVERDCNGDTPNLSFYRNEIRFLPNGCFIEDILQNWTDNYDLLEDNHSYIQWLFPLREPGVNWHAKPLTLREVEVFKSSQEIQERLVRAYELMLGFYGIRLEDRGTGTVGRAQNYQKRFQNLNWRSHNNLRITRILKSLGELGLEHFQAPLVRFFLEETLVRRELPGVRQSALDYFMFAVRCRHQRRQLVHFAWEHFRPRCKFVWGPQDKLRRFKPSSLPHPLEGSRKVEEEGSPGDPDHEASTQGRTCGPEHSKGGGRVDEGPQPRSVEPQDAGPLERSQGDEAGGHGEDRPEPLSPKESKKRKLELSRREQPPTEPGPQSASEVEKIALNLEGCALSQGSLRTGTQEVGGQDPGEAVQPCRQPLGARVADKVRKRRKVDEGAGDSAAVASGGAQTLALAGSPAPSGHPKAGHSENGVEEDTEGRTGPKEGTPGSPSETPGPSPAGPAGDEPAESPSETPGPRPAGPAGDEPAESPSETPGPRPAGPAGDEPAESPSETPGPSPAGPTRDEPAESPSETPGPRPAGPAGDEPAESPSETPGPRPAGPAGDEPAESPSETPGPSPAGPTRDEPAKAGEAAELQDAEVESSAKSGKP", "assay": "Competition for binding of [3H][Met5]enkephalin (4.0 nM) in nuclear homogenates of HT-29 human colon tumors", "design": "from tissue; host or cells: HT-29 human colon tumor xenografts grown in athymic nude mice; nuclear (P1) and other subcellular fractions"}, "HT-29 cells": {"test_system": "HT-29 cells", "assay": "Growth assay (cell counts) of HT-29 human colon cancer cells in culture", "assay_type": "cell-based", "experimental": "In some examples, cultures of HT-29 cells were maintained in McCoy's 5A media without fetal calf serum.\nas §2"}, "ζ-opioid receptor [2]": {"target": "T1, ζ-opioid receptor", "assay": "[3H]-[Met5]-enkephalin binding of HT-29 tumor homogenates from nude mice treated with 0.1 mg/kg NTX", "design": "from tissue; host or cells: HT-29 human colon tumor xenografts grown in athymic nude mice; nuclear (P1) and other subcellular fractions", "experimental": "Endogenous opioid systems regulate growth of neural tumor cells in culture. Brain Res. 490:1313-1318 (1988)].\nReceptor binding data were analyzed with a Lundon (Saturation Isotherm Binding Analysis) computer program (Lundon Software, Cleveland, Ohio). This analysis utilizes non-linear least squares regression. Saturation curves and Scatchard plots were computed and plotted directly by this program."}, "[3]": {"test_system": "HT-29 human colon cancer cells", "assay": "HT-29 human colon tumor xenografts in nude mice treated with 0.1 mg/kg naltrexone", "assay_type": "in vivo", "experimental": "HT-29 human colon cancer cells, purchased from the American Type Culture Collection (Rockville, Md.), were grown in McCoy's 5A Modified Medium containing 10% fetal calf serum, L-glutamine (2 mM), penicillin (10 units/ml), and streptomycin ([…]) in an atmosphere of 7% CO2 at 37° C. Cell viability was determined by the trypan blue exclusion test. Five- to six-week-old male athymic nude mice, obtained from the National Cancer Institute (Frederick, Md.), were injected subcutaneously over the right shoulder with 1×10^6 log phase HT-29 cells in a 0.5 ml suspension of McCoy's media. The day of tumor cell inoculation was considered day 0. The mice were evaluated daily and the date that the tumor became palpable was recorded. The time of “initial” appearance of a tumor was considered to be the day when tumor volume was 5 mm^3 or larger. Individual tumors were measured with vernier calipers every 2 days. Measurements of the two largest perpendicular dimensions were recorded and tumors volume was calculated using the formula: length×(width)^2×0.5 [Osieka, R., D. P. Houchens, and A. Goldin. Chemotherapy of human colon cancer xenografts in athymic nude mice. Cancer 40:2640-2650, (1977)]. All mice were euthanized and necropsied 50 days after tumor cell inoculation. Tumor tissue for receptor binding assays and radioimmunoassays was rapidly frozen in liquid nitrogen and stored at −70° C. until assayed.\nTreatment was initiated on the day of tumor cell inoculation. […] Animals were weighed-weekly and appropriate dosage adjustments made.\nLatencies until tumor appearance were analyzed using one-way analysis of variance; subsequent comparisons were made with the Newman-Keuls test. The number of mice developing tumors was expressed as a ratio of the total number of mice in the group. Comparisons between groups were made with chi-square tests.\nThe growth of tumors was compared for each mouse beginning on the day of initial tumor appearance and every 3 days thereafter until the termination of the experiment. Tumor measurements on these days were analyzed using one-way analysis of variance and Newman-Keuls test. Body weights were compared with a two-factor analysis of variance."}},
  "note": "Marks after values point to notes of the source that are not given here.",
  "data": [
    {"smiles": "O=C1CC[C@@]2(O)[C@H]3Cc4ccc(O)c5c4[C@@]2(CCN3CC2CC2)[C@H]1O5", "note": "[naltrexone]", "values": [
      {"measurement": "duration of opioid receptor blockade", "setting": "neuroblastoma; 0.1 mg/kg single daily injection", "value": "4-6 h/day"},
      {"measurement": "course of tumorigenesis and survival", "setting": "neuroblastoma; chronic receptor blockade: 10 mg/kg per day or 0.1 mg/kg 4 times daily", "value": "accelerated the course of tumorigenesis and shortened survival"},
      {"measurement": "tumor effect (e.g. tumor incidence)", "setting": "neuroblastoma; single daily injection of 0.1 mg/kg", "value": "antitumor effect"},
      {"measurement": "more cells than control cultures", "setting": "COLO 205 cells", "value": 76, "unit": "%"},
      {"measurement": "more cells than control cultures", "setting": "WiDr cells", "value": 68, "unit": "%"},
      {"measurement": "IC50", "setting": "ζ-opioid receptor [1]; 4.0 nM [3H][Met5]enkephalin, read-out: IC50", "value": "90.5 ± 3.5", "unit": "nM"},
      {"measurement": "Ki", "setting": "ζ-opioid receptor [1]; calculated from IC50 by Cheng and Prusoff, read-out: KI", "value": "69.6 ± 2.7", "unit": "nM"},
      {"measurement": "effect on cell growth in serum-free media", "setting": "HT-29 cells", "value": "significant increase in cell number"},
      {"measurement": "increase in cell number compared to control cultures", "setting": "HT-29 cells; 10^−6 M NTX, 12 hr", "value": 38, "unit": "%"},
      {"measurement": "binding affinity (Kd) versus control levels", "setting": "ζ-opioid receptor [2]; 0.1 mg/kg naltrexone", "value": "did not differ"},
      {"measurement": "binding capacity (Bmax) decreased from control values", "setting": "ζ-opioid receptor [2]; 0.1 mg/kg naltrexone", "value": 6.6, "unit": "fold"},
      {"measurement": "Bmax, fmol/mg protein", "setting": "ζ-opioid receptor [2]; tumors from mice treated with 0.1 mg/kg NTX", "value": "52.9 ± 12.1", "unit": "fmol/mg protein"},
      {"measurement": "Number of mice with tumors 19 days after inoculation", "setting": "[3]; 0.1 mg/kg NTX daily", "value": "3/10**"},
      {"measurement": "Number of mice with tumors 36 days after inoculation", "setting": "[3]; 0.1 mg/kg NTX daily", "value": "6/10*"},
      {"measurement": "Number of mice with tumors 50 days after inoculation", "setting": "[3]; 0.1 mg/kg NTX daily", "value": "8/10"},
      {"measurement": "Latency (days) for initial tumor appearance", "setting": "[3]; 0.1 mg/kg NTX daily s.c.", "value": "23.1 ± 2.9", "unit": "days"},
      {"measurement": "Latency (days) for initial tumor appearance (Range)", "setting": "[3]; 0.1 mg/kg NTX daily s.c.", "value": "(14-37) days"},
      {"measurement": "Latency (days) for palpable tumor", "setting": "[3]; 0.1 mg/kg NTX daily s.c. from inoculation", "value": "17.0 ± 2.8", "unit": "days"},
      {"measurement": "behavioral differences (e.g. hyperactivity) versus control", "setting": "[3]; 0.1 mg/kg naltrexone", "value": "no behavioral differences"},
      {"measurement": "interval between palpable tumors and initial tumor appearance versus control", "setting": "[3]; 0.1 mg/kg naltrexone", "value": "similar"},
      {"measurement": "mean latency prior to palpable tumor appearance increased compared to control", "setting": "[3]; 0.1 mg/kg naltrexone", "value": 2.4, "unit": "fold"},
      {"measurement": "range in latency until initial tumor appearance greater than control", "setting": "[3]; 0.1 mg/kg naltrexone", "value": "up to 2 fold"},
      {"measurement": "size of tumors after initial tumor appearance versus control", "setting": "[3]; 0.1 mg/kg naltrexone", "value": "did not differ"},
      {"measurement": "body weights versus control animals", "setting": "[3]; 0.1 mg/kg naltrexone, throughout the experiment", "value": "comparable"},
      {"measurement": "mice with tumors", "setting": "[3]; day 36, 0.1 mg/kg", "value": 60, "unit": "%"},
      {"measurement": "mice that still did not have tumors", "setting": "[3]; day 50, 0.1 mg/kg", "value": 20, "unit": "%"},
      {"measurement": "mice with tumors of 5 mm^3 or larger", "setting": "[3]; nineteen days after inoculation, 0.1 mg/kg", "value": 30, "unit": "%"},
      {"measurement": "number of mice with palpable tumors", "setting": "[3]; ten days after tumor cell inoculation, 0.1 mg/kg", "value": 2}
    ]}
  ]
}
